Earlier results in US20050201989A1, “Compositions and methods for ex vivo preservation of blood vessels for vascular grafts using inhibitors of tumor necrosis factor-alpha” (St. Camillus Medical, Inc., priority 2004, published 2005).

System: endothelial cells
Conditions: general knowledge statement, no test described

SMILES: CCCC(=O)Nc1ncnc2c1ncn2[C@@H]1O[C@@H]2COP(=O)(O)O[C@H]2[C@H]1OC(=O)CCC [db cAMP, dibutyryl adenosine 3′,5′-cyclic monophosphate]
- db cAMP concentration that becomes toxic to endothelial cells: higher than 4 mM
